Reference: PubChem BioAssay (NCI)
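Five concentrations, 48 hours, 96-well plates. GI50: concentration for 50% inhibition of growth. Definition used: TGI = concentration required for complete inhibition of growth.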

Columns and labels:
Assay in all cases: NCI anticancer screen, dose series, 48 h
COLO 205 colon = test system: COLO 205 colon
SW-620 colon = test system: SW-620 colon
SNB-19 CNS = test system: SNB-19 CNS
HCT-15 colon = test system: HCT-15 colon
OVCAR-8 ovarian = test system: OVCAR-8 ovarian
M14 melanoma = test system: M14 melanoma
RXF 393 renal = test system: RXF 393 renal
SNB-75 CNS = test system: SNB-75 CNS
SF-539 CNS = test system: SF-539 CNS
SK-MEL-2 melanoma = test system: SK-MEL-2 melanoma

SMILES | GI50 (COLO 205 colon) [µM] | TGI (COLO 205 colon) [µM] | GI50 (SW-620 colon) [µM] | TGI (SW-620 colon) [µM] | GI50 (SNB-19 CNS) [µM] | TGI (SNB-19 CNS) [µM] | GI50 (HCT-15 colon) [µM] | TGI (HCT-15 colon) [µM] | GI50 (OVCAR-8 ovarian) [µM] | TGI (OVCAR-8 ovarian) [µM] | GI50 (M14 melanoma) [µM] | TGI (M14 melanoma) [µM] | GI50 (RXF 393 renal) [µM] | TGI (RXF 393 renal) [µM] | GI50 (SNB-75 CNS) [µM] | TGI (SNB-75 CNS) [µM] | GI50 (SF-539 CNS) [µM] | TGI (SF-539 CNS) [µM] | GI50 (SK-MEL-2 melanoma) [µM] | TGI (SK-MEL-2 melanoma) [µM]
O=C1NC(=O)C(=Cc2cn(Cc3ccccc3)c3ccccc23)C(=O)N1 | 1.13 | 9.44 | 12.1 | 28.9 | 16.2 | 38.9 | 14.3 | 38.2 | 17.1 | 43.8 | 17.9 | 44.4 | 11.6 | 48.3 | 7.61 | 27.1 | 34.3 | > 100 | 6.41 | 28.3
Brc1cc(C2OCCCO2)ccc1OCc1ccccc1 | – | 56.9 | – | > 100 | – | > 100 | – | > 100 | – | > 100 | – | > 100 | – | > 100 | – | > 100 | – | > 100 | – | > 100
Cc1ccc(N2C(=O)/C(=C/c3ccc(N(CCC#N)CCC#N)cc3)N=C2COc2ccc(Cl)cc2Cl)cc1 | – | > 100 | – | > 100 | – | > 100 | – | > 100 | – | > 100 | – | > 100 | – | > 100 | – | > 100 | – | > 100 | – | > 100
O=c1cc(-c2ccccc2)[nH]c2c1CCCC2 | 1.99 | 6.42 | 1.64 | > 100 | 8.9 | > 100 | 2.01 | > 100 | 4.58 | > 100 | 1.5 | 5.68 | 1.8 | 5.53 | 1.8 | > 100 | 2.92 | > 100 | 4.19 | > 100
CCCC(O)c1cn(-c2cccc(S(=O)(=O)O)c2)nn1 (stereo not given) | – | > 100 | – | > 100 | – | > 100 | – | > 100 | – | > 100 | – | > 100 | – | > 100 | – | > 100 | – | > 100 | – | > 100
COc1ccc2c(c1O)[C@@]13CCCC=C1[C@@H](C2)[N+](C)(C)CC3 | – | > 100 | – | > 100 | – | > 100 | – | > 100 | – | > 100 | – | > 100 | – | > 100 | – | > 100 | – | – | – | > 100
CN1CCN(CCCOc2ccc3nc(Nc4ccc(F)c(F)c4)ccc3c2)CC1 | 1.72 | 3.69 | 1.82 | 3.71 | 2.08 | 4.79 | 1.29 | 3.33 | 3.6 | 12.5 | 1.74 | 3.68 | 1.52 | 4.36 | 1.35 | 4.05 | 1.8 | 3.73 | 1.91 | 3.8
CCCCNS(=O)(=O)c1ccc(-c2ccc3c(c2)-c2ccc(S(=O)(=O)NCCCC)cc2S3(=O)=O)cc1 | – | > 100 | – | > 100 | – | – | – | > 100 | – | 24.9 | – | 53.7 | – | 30.6 | – | – | – | 27.4 | – | 87.9
NC1=NC(SCc2ccccc2CCl)c2ncn(Cc3ccccc3CCl)c2N1 (stereo not given) | 1.64 | 3.49 | 1.54 | 3.57 | 4.83 | 23.2 | 2.9 | 12.3 | 2.01 | 5.09 | – | – | 1.48 | 2.85 | 2.06 | 5.47 | 2.92 | 10.4 | 2.06 | 4.89
COc1cc(C)cc(C(=O)/C=C/c2ccccc2)c1O | – | 38.1 | – | 52.3 | – | 38.5 | – | 40.9 | – | 40 | – | 34.8 | – | 35.7 | – | 72.1 | – | – | – | 48.2
COC(=O)C(=O)C(C(=O)C(=O)Nc1ccccc1[N+](=O)[O-])c1nc2ccc([N+](=O)[O-])cc2[nH]c1=O (stereo not given) | – | > 100 | – | > 100 | – | > 100 | – | > 100 | – | > 100 | – | > 100 | – | > 100 | – | > 100 | – | – | – | > 100
C=C(C(=O)OC)[C@@H]1CC2OC1C(=O)C(C)CCC/C(C)=C/CC[C@@]2(C)O (stereo not given in full) | 25.1 | 78.7 | 15 | 30.1 | > 100 | > 100 | 29.1 | > 100 | 28.1 | 93.6 | 15.8 | 29.2 | 18 | 36.4 | – | – | 18.4 | 36.4 | 37.8 | > 100
CC12CCC(=O)C(O1)C1C(=O)c3ccc4c(ccc5ccccc54)c3C(=O)C12 (stereo not given) | 2.13 | > 59.1 | – | – | 20.9 | 52 | 14.2 | 30.6 | 4.27 | 12.7 | 12.2 | 30.6 | – | 2.03 | 20.5 | 54 | 18.8 | 45.3 | 10 | > 28.6
CCOC(=O)c1sc2c(C(=O)OCC)n3cc(C)cc(C)c3c2c1O | – | > 100 | – | > 100 | – | > 100 | – | – | – | > 100 | – | > 100 | – | > 100 | – | > 100 | – | > 100 | – | > 100
CC(=O)OCC1OC(n2c(=O)[nH]c(=O)c3n[nH]nc32)C(OC(C)=O)C(OC(C)=O)C1OC(C)=O (stereo not given) | – | > 100 | – | > 100 | – | > 100 | – | > 100 | – | > 100 | – | > 100 | – | > 100 | – | – | – | – | – | > 100
CCOC(=O)c1c(-c2ccccc2)[n+](=O)c2cc(F)c(F)cc2n1[O-] | – | – | 0.494 | 3.57 | 1.95 | 3.45 | 0.215 | 0.441 | 2.06 | 4.43 | 1.11 | 2.34 | 1.38 | 4.1 | 1.75 | 3.64 | 1.95 | 3.68 | 3.47 | > 100
COc1cc(C2c3cc4c(cc3OC(O)C2C)OCO4)cc(OC)c1OC (stereo not given) | – | – | – | > 100 | – | > 100 | – | > 100 | – | > 20.5 | – | 30.2 | – | > 100 | – | 4.93 | – | 0.92 | – | 13.3
O=C(O)c1c2c(cc3c(=O)c4ccccc4[nH]c13)CCCC2 | – | > 100 | – | > 100 | – | > 100 | – | > 100 | – | > 100 | – | – | – | > 100 | – | > 100 | – | > 100 | – | > 100
COc1cc(OC)c2c(=O)cc(-c3ccccc3OCc3ccccc3)oc2c1OC | – | – | 8.06 | > 100 | 41.7 | > 100 | 16.2 | > 100 | > 100 | > 100 | 7.22 | 23.1 | > 100 | > 100 | 61.8 | > 100 | 12.4 | 40 | > 100 | > 100
CN(C)CCN1C(=O)c2cccc3c(/C=C/CN4C(=O)c5cccc6cccc(c56)C4=O)ccc(c23)C1=O | > 100 | > 100 | > 100 | > 100 | 13.9 | 26.9 | > 100 | > 100 | 4.21 | > 100 | > 100 | > 100 | 59.2 | > 100 | – | – | 6.33 | 19.5 | > 100 | > 100
N#C/C(=C/N1CCN(C(=O)c2ccco2)C1=S)C(=O)Nc1ccc(Cl)cc1 | 25.6 | > 50 | 17.3 | > 50 | 27.6 | > 50 | 21.3 | > 50 | 20.6 | > 50 | 14.2 | > 50 | 13.1 | 44.9 | > 50 | > 50 | – | – | 16.7 | 39.7
CC12OC(C(=O)C13CC3)C1C(=O)c3c(O)ccc(O)c3C(=O)C12 (stereo not given) | 15.4 | 35.8 | – | – | 28.9 | > 100 | 11 | 24.7 | 15.6 | 36.1 | 15.3 | 30.2 | 16.7 | 37.6 | 20.6 | 40.8 | 19.4 | 49.9 | 33.9 | > 100
COC(=O)c1onc(C2OC(C)(C)OC2C(O)COC(c2ccccc2)(c2ccccc2)c2ccccc2)c1C(=O)OC (stereo not given) | – | > 100 | – | > 100 | – | > 100 | – | > 100 | – | > 100 | – | > 100 | – | > 100 | – | – | – | > 100 | – | > 100
Fc1ccc2c(c1)C1=C(CCC2)C(c2ccc(Cl)cc2)NC(=S)N1 (stereo not given) | 62.1 | > 100 | 39.1 | > 100 | 77.9 | > 100 | 26.2 | > 100 | 25.8 | > 100 | 40.9 | > 100 | 81.4 | > 100 | 69.9 | > 100 | 37.6 | > 100 | – | –
